Reference: article PMC10280969, “A green leaf volatile, (Z)-3-hexenyl-acetate, mediates differential oviposition by Spodoptera frugiperda on maize and rice” (BMC Biology, 2023)

Tests used:
Experiment in all cases: two-electrode voltage clamp, Xenopus oocytes
Format in all cases: cell-based
Conditions in all cases: 10^-4 M odorant; Ca2+-free Ringer buffer pH 7.6; agonist
[1] = biological target: T1, SfruOR5 (Spodoptera frugiperda, UniProt A0A9R0ELQ8)
T1 construct: gene LOC118270580; full-length ORF, pT7TS cRNA, Xenopus laevis oocytes; with Odorant receptor coreceptor
T1 sequence (A0A9R0ELQ8 1-379): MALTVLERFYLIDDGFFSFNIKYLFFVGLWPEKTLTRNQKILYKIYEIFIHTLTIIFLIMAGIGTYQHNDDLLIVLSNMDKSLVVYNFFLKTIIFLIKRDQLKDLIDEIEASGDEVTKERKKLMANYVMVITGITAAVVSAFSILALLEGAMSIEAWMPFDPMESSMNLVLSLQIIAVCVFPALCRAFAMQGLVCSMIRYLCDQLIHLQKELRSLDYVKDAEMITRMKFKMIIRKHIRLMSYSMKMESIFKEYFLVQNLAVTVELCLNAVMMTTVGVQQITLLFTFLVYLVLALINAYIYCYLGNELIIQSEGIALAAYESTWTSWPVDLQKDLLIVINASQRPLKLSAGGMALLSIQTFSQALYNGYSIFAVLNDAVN
T1 sequence (A0A9F1UC78 1-473 partner): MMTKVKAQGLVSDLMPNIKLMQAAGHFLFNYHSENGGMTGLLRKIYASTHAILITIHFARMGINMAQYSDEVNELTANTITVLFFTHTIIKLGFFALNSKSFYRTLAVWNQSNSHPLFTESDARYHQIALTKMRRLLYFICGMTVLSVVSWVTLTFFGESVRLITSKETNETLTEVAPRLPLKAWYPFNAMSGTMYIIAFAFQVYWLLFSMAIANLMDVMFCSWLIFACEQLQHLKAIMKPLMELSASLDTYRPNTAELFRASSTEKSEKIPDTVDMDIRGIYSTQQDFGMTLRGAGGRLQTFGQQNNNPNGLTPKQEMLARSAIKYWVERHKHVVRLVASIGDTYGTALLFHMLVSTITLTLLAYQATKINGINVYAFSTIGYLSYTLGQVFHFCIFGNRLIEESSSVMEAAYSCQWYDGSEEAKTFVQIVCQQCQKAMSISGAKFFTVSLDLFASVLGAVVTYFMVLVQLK

[2] = biological target: T2, SfruOR9 (Spodoptera frugiperda, UniProt A0A9R0EEX7)
T2 construct: gene LOC118261888; full-length ORF, pT7TS cRNA, Xenopus laevis oocytes; with Odorant receptor coreceptor
T2 sequence (A0A9R0EEX7 1-400): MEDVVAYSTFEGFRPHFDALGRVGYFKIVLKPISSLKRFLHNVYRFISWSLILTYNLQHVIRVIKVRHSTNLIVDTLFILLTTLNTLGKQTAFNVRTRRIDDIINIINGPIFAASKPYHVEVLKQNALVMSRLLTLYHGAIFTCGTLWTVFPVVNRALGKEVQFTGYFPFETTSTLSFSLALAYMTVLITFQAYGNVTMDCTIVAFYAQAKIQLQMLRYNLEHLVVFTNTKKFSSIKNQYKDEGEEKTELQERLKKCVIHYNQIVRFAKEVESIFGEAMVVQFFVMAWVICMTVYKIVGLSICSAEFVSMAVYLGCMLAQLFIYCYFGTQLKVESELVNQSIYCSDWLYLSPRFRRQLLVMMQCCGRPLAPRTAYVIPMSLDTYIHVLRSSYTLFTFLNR
T2 sequence (A0A9F1UC78 1-473 partner): T1 sequence (A0A9F1UC78 1-473 partner)

[3] = biological target: T3, SfruOR17 (Spodoptera frugiperda, UniProt A0A9R0D2T2)
T3 construct: gene LOC118267896; full-length ORF, pT7TS cRNA, Xenopus laevis oocytes; with Odorant receptor coreceptor
T3 sequence (A0A9R0D2T2 1-395): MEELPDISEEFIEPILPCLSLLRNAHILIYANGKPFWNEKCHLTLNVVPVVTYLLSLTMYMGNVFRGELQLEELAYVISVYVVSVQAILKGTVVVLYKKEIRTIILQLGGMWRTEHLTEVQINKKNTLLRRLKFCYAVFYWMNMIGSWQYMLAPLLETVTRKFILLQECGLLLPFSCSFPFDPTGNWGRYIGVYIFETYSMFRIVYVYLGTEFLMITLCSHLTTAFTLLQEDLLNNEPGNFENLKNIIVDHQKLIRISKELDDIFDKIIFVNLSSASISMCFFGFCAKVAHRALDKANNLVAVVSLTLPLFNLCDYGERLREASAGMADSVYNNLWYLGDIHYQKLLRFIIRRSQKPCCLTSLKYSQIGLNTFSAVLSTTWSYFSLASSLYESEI
T3 sequence (A0A9F1UC78 1-473 partner): T1 sequence (A0A9F1UC78 1-473 partner)

[4] = biological target: T4, SfruOR23/ORco (Spodoptera frugiperda, UniProt A0A9R0EA99)
T4 construct: gene LOC118268273; full-length ORF, pT7TS cRNA, Xenopus laevis oocytes, with ORco; with Odorant receptor coreceptor
T4 sequence (A0A9R0EA99 1-429): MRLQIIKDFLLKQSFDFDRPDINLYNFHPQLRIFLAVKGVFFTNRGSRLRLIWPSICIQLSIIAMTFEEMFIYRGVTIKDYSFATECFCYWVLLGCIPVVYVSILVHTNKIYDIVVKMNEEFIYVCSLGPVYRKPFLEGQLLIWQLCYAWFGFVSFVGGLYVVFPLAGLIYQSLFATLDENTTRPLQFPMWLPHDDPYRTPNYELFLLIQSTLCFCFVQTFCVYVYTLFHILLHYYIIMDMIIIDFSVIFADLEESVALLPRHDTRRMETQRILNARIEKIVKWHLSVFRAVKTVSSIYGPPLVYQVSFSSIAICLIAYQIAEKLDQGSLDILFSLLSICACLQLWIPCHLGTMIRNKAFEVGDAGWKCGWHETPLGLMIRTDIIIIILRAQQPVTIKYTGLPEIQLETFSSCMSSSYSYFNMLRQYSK
T4 sequence (A0A9F1UC78 1-473 partner): T1 sequence (A0A9F1UC78 1-473 partner)

`CC/C=C\CCOC(C)=O` [(Z)-3-hexenyl-acetate] was tested. Which inward current response [1] did it give?
Its inward current response is “SfruOR5, SfruOR9, SfruOR17, SfruOR23, and SfruOR25 responded to the oviposition stimulant (Z)-3-hexenyl-acetate”.

And the inward current response [2]?
Its inward current response is “SfruOR5, SfruOR9, SfruOR17, SfruOR23, and SfruOR25 responded to the oviposition stimulant (Z)-3-hexenyl-acetate”.

And the inward current response [3]?
The inward current response was “SfruOR5, SfruOR9, SfruOR17, SfruOR23, and SfruOR25 responded to the oviposition stimulant (Z)-3-hexenyl-acetate”.

What about the inward current response [4] of the same compound?
Its inward current response is “with SfruOR23/ORco showing the highest response”.
